Measurements reported in US20080287491A1, “Tetrahydroquinoline Derivative for Treating Nicotine Craving” (priority 2003, published 2008).
Entries after “also recorded” stand apart in the source; their conditions may differ. Structures can show the parent of a compound that is named as a salt.

What was measured:
[1] = test system: nicotine craving in smokers abstinent for 3 days from cigarettes; assay: QSU-Brief nicotine craving questionnaire, single-dose enforced abstinence study; format: in vivo, human; settings: single dose 120 mg iv
Procedure: The ability of the compound of formula (I) or pharmaceutically acceptable salts thereof to reduce nicotine craving in smokers was measured by means of self-administered questionnaires on Smoking Craving/Urge-Brief (QSU-Brief), as described by Tiffany S T, & Christen A G Cox L S, Nicotine and Tobacco Research, 3: 7-16, 2001. The QSU-Brief is a specific craving scale that consists of 10 items scored on a scale from 1 to 7. The higher average score corresponds to the higher intensity of nicotine craving. The QSU-Brief has 2 factors: factor 1 refers to the anticipation of pleasure from smoke and factor 2 refers to anticipation of relief from negative affects of abstinence. The study investigated nicotine craving in smokers abstinent for 3 days from cigarettes (enforced abstinence model) receiving either a single dose 120 mg iv of the compound of formula (I) as meglumine salt (Compound) or a single dose of placebo. Self-administered questionnaires (QSU-Brief), were administered at pre-dose and 3, 6 and 12 hours post dose to evaluate craving.

[2] = test system: nicotine craving in smokers abstinent for 72 hours from cigarettes; assay: QSU-Brief nicotine craving questionnaire, repeated-dose three-period crossover enforced abstinence study; format: in vivo, human; settings: 31 smoker volunteers; 120 mg/day intravenously for 7 days; 72 hours of abstinence from Day 5; FIG. 1
Procedure: The ability of the compound of formula (I) or pharmaceutically acceptable salts thereof to reduce nicotine craving in smokers was measured by means of self-administered questionnaires on Smoking Craving/Urge-Brief (QSU-Brief), as described by Tiffany S T, & Christen A G Cox L S, Nicotine and Tobacco Research, 3: 7-16, 2001. The QSU-Brief is a specific craving scale that consists of 10 items scored on a scale from 1 to 7. The higher average score corresponds to the higher intensity of nicotine craving. The QSU-Brief has 2 factors: factor 1 refers to the anticipation of pleasure from smoke and factor 2 refers to anticipation of relief from negative affects of abstinence. A further study investigated nicotine craving in smokers abstinent for 72 hours from cigarettes (enforced abstinence model) receiving either repeated administrations of the compound of formula (I) as meglumine salt (Compound) or placebo. […] Each subject was exposed to 3 different experimental conditions: 1) Compound (120 mg/day) was administered intravenously for 7 days starting on Day 1 and quitted smoking abruptly on Day 5 for 72 hours (i.e. non-smoking period;) 2) Placebo was administered intravenously for 7 days starting on Day 1 and quitted smoking abruptly on Day 5 for 72 hours (i.e. non-smoking period;) 3) allowed to smoke for 7 consecutive days (i.e. free smoking period). […]

Compound: O=C(O)[C@H]1C/C(=C2/CCN(c3ccccc3)C2=O)c2ccc(Cl)cc2N1 [Compound, (2R,4E)-7-chloro-4-(2-oxo-1-phenyl-3-pyrrolidinylidene)-1,2,3,4-tetrahydro-2-quinolinecarboxylic acid, (2R,3R,4R,5S)-6-methylamino-hexane-1,2,3,4,5-pentanol (meglumine) salt (form 2)]
- QSU-Brief: Craving Factor 2 (average during abstinence) ([1]; QSU-Brief items scored 1 to 7, pre-dose and 3, 6 and 12 hours post dose, placebo 4.0): 3.6
- Average craving factor 2 compared with placebo ([1]; versus abstinent smokers receiving placebo): significant average lower craving factor 2
- Nicotine craving level (QSU-Brief) compared with placebo [2]: showed reduction in nicotine craving; also recorded: reduced the nicotine craving level
